Laboratory results published in patent US8163724B2, “Glucocorticosteroids, processes for their preparation, pharmaceutical compositions containing them and their use in therapy” (AstraZeneca AB, priority 2007, dated 2012).

Target: T1, recombinant human GR (Homo sapiens, UniProt P04150)
T1 construct: purchased Panvera/Invitrogen P2812 (kit P2893)
T1 sequence (P04150 1-777): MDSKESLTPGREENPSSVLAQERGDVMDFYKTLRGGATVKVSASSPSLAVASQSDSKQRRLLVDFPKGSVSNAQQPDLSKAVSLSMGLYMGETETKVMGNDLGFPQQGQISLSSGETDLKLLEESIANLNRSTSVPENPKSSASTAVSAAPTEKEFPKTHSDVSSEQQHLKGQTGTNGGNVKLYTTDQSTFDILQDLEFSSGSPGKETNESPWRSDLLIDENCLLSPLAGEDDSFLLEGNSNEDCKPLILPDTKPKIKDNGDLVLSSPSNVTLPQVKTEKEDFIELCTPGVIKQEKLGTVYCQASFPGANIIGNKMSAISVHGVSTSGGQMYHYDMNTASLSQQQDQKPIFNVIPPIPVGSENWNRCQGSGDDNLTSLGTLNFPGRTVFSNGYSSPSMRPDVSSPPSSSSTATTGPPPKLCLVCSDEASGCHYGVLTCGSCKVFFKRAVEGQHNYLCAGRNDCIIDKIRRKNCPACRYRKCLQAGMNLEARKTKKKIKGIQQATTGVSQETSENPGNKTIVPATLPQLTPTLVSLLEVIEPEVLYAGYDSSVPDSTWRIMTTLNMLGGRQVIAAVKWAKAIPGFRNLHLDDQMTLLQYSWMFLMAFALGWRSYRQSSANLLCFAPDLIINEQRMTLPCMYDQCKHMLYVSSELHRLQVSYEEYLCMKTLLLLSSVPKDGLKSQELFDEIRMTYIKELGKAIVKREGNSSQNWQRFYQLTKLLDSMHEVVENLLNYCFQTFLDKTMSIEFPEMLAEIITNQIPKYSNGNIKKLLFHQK
Assay: Human Glucocorticoid Receptor (GR) Assay (fluorescence polarization, Panvera/Invitrogen kit)
Format: binding
Conditions: fluorescence polarization; GS Red tracer; 2 hours at room temperature; 100% control 10 μM Dexamethasone; read-out: Inhibition of GR binding, IC50
Procedure, shortened: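 Fluorescence polarization competition with recombinant GR and GS Red fluorescent ligand plus stabilizing peptide and DTT in potassium phosphate/sodium molybdate/EDTA buffer with DMSO. Incubated 2 hours at room temperature in the dark; 0% control DMSO, 100% control 10 μM dexamethasone.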

C[C@]12Cc3cnn(-c4ccc(F)cc4)c3C=C1CC[C@@H]1[C@@H]2[C@@H](O)C[C@@]2(C)[C@H]1CC[C@]2(OC(=O)c1nccs1)C(=O)SCCO [Example 40, (1R,3aS,3bS,10aR,10bS,11S,12aS)-7-(4-Fluorophenyl)-11-hydroxy-1-{[(2-hydroxy-ethyl)thio]carbonyl}-10a,12a-dimethyl-1,2,3,3a,3b,4,5,7,10,10a,10b,11,12,12a-tetradecahydrocyclopenta[5,6]naphtho[1,2-f]indazol-1-yl 1,3-thiazole-2-carboxylate]
IC50: 2.9 nM

C[C@]12Cc3cnn(-c4ccc(F)cc4)c3C=C1CC[C@@H]1[C@@H]2[C@@H](O)C[C@@]2(C)[C@H]1CC[C@]2(OC(=O)c1nccs1)C(=O)SCC#CCO [Example 41, (1R,3aS,3bS,10aR,10bS,11S,12aS)-7-(4-Fluorophenyl)-11-hydroxy-{[(4-hydroxy-but-2-yn-1-yl)thio]carbonyl}-10a,12a-dimethyl-1,2,3,3a,3b,4,5,7,10,10a,10b,11,12,12a-tetradecahydrocyclopenta[5,6]naphtho[1,2-f]indazol-1-yl 1,3-thiazole-2-carboxylate]
IC50: 4.1 nM

C[C@]12Cc3cnn(-c4ccc(F)cc4)c3C=C1CC[C@@H]1[C@@H]2[C@@H](O)C[C@@]2(C)[C@H]1CC[C@]2(OC(=O)c1nccs1)C(=O)SCF [Example 42, (1R,3aS,3bS,10aR,10bS,11S,12aS)-1-{[(Fluoromethyl)thio]carbonyl}-7-(4-fluoro-phenyl)-11-hydroxy-10a,12a-dimethyl-1,2,3,3a,3b,4,5,7,10,10a,10b,11,12,12a-tetradecahydrocyclopenta[5,6]naphtho[1,2-f]indazol-1-yl 1,3-thiazole-2-carboxylate]
IC50: 3.2 nM

C[C@]12Cc3cnn(-c4ccc(F)cc4)c3C=C1CC[C@@H]1[C@@H]2[C@@H](O)C[C@@]2(C)[C@H]1CC[C@]2(OC(=O)c1cocn1)C(=O)SCC#N [Example 43, (1R,3aS,3bS,10aR,10bS,11S,12aS)-1-{[(Cyanomethyl)thio]carbonyl}-7-(4-fluoro-phenyl)-11-hydroxy-10a,12a-dimethyl-1,2,3,3a,3b,4,5,7,10,10a,10b,11,12,12a-tetradecahydrocyclopenta[5,6]naphtho[1,2-f]indazol-1-yl 1,3-oxazole-4-carboxylate]
IC50: 2.7 nM

C[C@]12Cc3cnn(-c4ccc(F)cc4)c3C=C1CC[C@@H]1[C@@H]2[C@@H](O)C[C@@]2(C)[C@H]1CC[C@]2(OC(=O)c1cocn1)C(=O)SCCO [Example 44, (1R,3aS,3bS,10aR,10bS,11S,12aS)-7-(4-Fluorophenyl)-11-hydroxy-1-{[(2-hydroxy-ethyl)thio]carbonyl}-10a,12a-dimethyl-1,2,3,3a,3b,4,5,7,10,10a,10b,11,12,12a-tetradecahydrocyclopenta[5,6]naphtho[1,2-f]indazol-1-yl 1,3-oxazole-4-carboxylate]
IC50: 2.9 nM

C[C@]12Cc3cnn(-c4ccc(F)cc4)c3C=C1CC[C@@H]1[C@@H]2[C@@H](O)C[C@@]2(C)[C@H]1CC[C@]2(OC(=O)c1cocn1)C(=O)SCF [Example 45, (1R,3aS,3bS,10aR,10bS,11S,12aS)-1-{[(Fluoromethyl)thio]carbonyl}-7-(4-fluoro-phenyl)-11-hydroxy-10a,12a-dimethyl-1,2,3,3a,3b,4,5,7,10,10a,10b,11,12,12a-tetradecahydrocyclopenta[5,6]naphtho[1,2-f]indazol-1-yl 1,3-oxazole-4-carboxylate]
IC50: 3.4 nM

CC(=O)CSC(=O)[C@@]1(OC(=O)c2cocn2)CC[C@H]2[C@@H]3CCC4=Cc5c(cnn5-c5ccc(F)cc5)C[C@]4(C)[C@H]3[C@@H](O)C[C@@]21C [Example 46, (1R,3aS,3bS,10aR,10bS,11S,12aS)-7-(4-Fluorophenyl)-11-hydroxy-10a,12a-dimethyl-1-{[(2-oxopropyl)thio]carbonyl}-1,2,3,3a,3b,4,5,7,10,10a,10b,11,12,12a-tetradecahydropcyclopenta[5,6]naphtho[1,2-f]indazol-1-yl 1,3-oxazole-4-carboxylate]
IC50: 3.9 nM

Cn1cc(C(=O)O[C@]2(C(=O)SCC#N)CC[C@H]3[C@@H]4CCC5=Cc6c(cnn6-c6ccc(F)cc6)C[C@]5(C)[C@H]4[C@@H](O)C[C@@]32C)nn1 [Example 47, (1R,3aS,3bS,10aR,10bS,11S,12aS)-1-{[(Cyanomethyl)thio]carbonyl}-7-(4-fluoro-phenyl)-11-hydroxy-10a,12a-dimethyl-1,2,3,3a,3b,4,5,7,10,10a,10b,11,12,12a-tetradecahydrocyclopenta[5,6]naphtho[1,2-f]indazol-1-yl 1-methyl-1H-1,2,3-triazole-4-carboxylate]
IC50: 2.5 nM

Cn1cc(C(=O)O[C@]2(C(=O)SCF)CC[C@H]3[C@@H]4CCC5=Cc6c(cnn6-c6ccc(F)cc6)C[C@]5(C)[C@H]4[C@@H](O)C[C@@]32C)nn1 [Example 48, (1R,3aS,3bS,10aR,10bS,11S,12aS)-1-{[(Fluoromethyl)thio]carbonyl}-7-(4-fluoro-phenyl)-11-hydroxy-10a,12a-dimethyl-1,2,3,3a,3b,4,5,7,10,10a,10b,11,12,12a-tetradecahydrocyclopenta[5,6]naphtho[1,2-f]indazol-1-yl 1-methyl-1H-1,2,3-triazole-4-carboxylate]
IC50: 4.9 nM

Cn1cc(C(=O)O[C@]2(C(=O)SCCO)CC[C@H]3[C@@H]4CCC5=Cc6c(cnn6-c6ccc(F)cc6)C[C@]5(C)[C@H]4[C@@H](O)C[C@@]32C)nn1 [Example 49, (1R,3aS,3bS,10aR,10bS,11S,12aS)-7-(4-Fluorophenyl)-11-hydroxy-1-{[(2-hydroxy-ethyl)thio]carbonyl}-10a,12a-dimethyl-1,2,3,3a,3b,4,5,7,10,10a,10b,11,12,12a-tetradecahydrocyclopenta[5,6]naphtho[1,2-f]indazol-1-yl 1-methyl-1H-1,2,3-triazole-4-carboxylate]
IC50: 3.5 nM

C[C@]12Cc3cnn(-c4ccc(F)cc4)c3C=C1CC[C@@H]1[C@@H]2[C@@H](O)C[C@@]2(C)[C@H]1CC[C@]2(OC(=O)c1ccoc1)C(=O)SCC#N [Example 50, (1R,3aS,3bS,10aR,10bS,11S,12aS)-1-{[(Cyanomethyl)thio]carbonyl}-7-(4-fluoro-phenyl)-11-hydroxy-10a,12a-dimethyl-1,2,3,3a,3b,4,5,7,10,10a,10b,11,12,12a-tetradecahydrocyclopenta[5,6]naphtho[1,2-f]indazol-1-yl furan-3-carboxylate]
IC50: 5.8 nM

C[C@]12Cc3cnn(-c4ccc(F)cc4)c3C=C1CC[C@@H]1[C@@H]2[C@@H](O)C[C@@]2(C)[C@H]1CC[C@]2(OC(=O)c1ccoc1)C(=O)SCF [Example 51, (1R,3aS,3bS,10aR,10bS,11S,12aS)-1-{[(Fluoromethyl)thio]carbonyl}-7-(4-fluoro-phenyl)-11-hydroxy-10a,12a-dimethyl-1,2,3,3a,3b,4,5,7,10,10a,10b,11,12,12a-tetradecahydrocyclopenta[5,6]naphtho[1,2-f]indazol-1-yl furan-3-carboxylate]
IC50: 6.9 nM
